{"source": "paper PMC9292003", "about": "“A β‐ketoacyl carrier protein reductase confers heat tolerance via the regulation of fatty acid biosynthesis and stress signaling in rice” (The New Phytologist, 2021)", "target": "T1, HTS1 (GST-HTS1) (Oryza sativa, UniProt Q7XMI8)", "T1 construct": "E. coli BL21; vector printed as pET30a", "assay": "NADPH absorption at", "type": "biochemical", "details": "reductase activity; co-substrate printed as NADH in results, NADPH in methods", "data": [{"molecule": "CC(=O)CC(=O)SCCNC(=O)CCNC(=O)[C@H](O)C(C)(C)COP(=O)(O)OP(=O)(O)OC[C@H]1O[C@@H](n2cnc3c(N)ncnc32)[C@H](O)[C@@H]1OP(=O)(O)O", "note": "[acetoacetyl-CoA]", "values": [{"measurement": "NADPH absorption at 340 nm", "result": "High catalytic activity was detected in GST‐HTS1 after introducing acetoacetyl‐CoA and NADH"}]}]}
